Measurements from patent US9561231B2 (AbbVie Inc., priority 2012, dated 2017).
Like-named read-outs stand apart in the source and are kept apart here.

Legend:
[1] = system: breast cancer cell line MX-1; assay: MX-1 cell line proliferation assay (3-day); assay type: cell-based; settings: Homo sapiens, MX1, MX-1 cells, Cell Titer Glo, read-out: Cellular proliferation: EC50
Method in brief: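 EC50 derived by sigmoidal fitting of Cell Titer Glo signal relative to DMSO controls. Compound, 3 μM down to 0.0001 μM final in 3-fold steps, was added to adhered MX-1 cells (5000/well, RPMI + 10% FBS) for a 3-day incubation at 37° C.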

[2] = biological target: T1, first (BD1: amino acids K57-E168) bromodomain of BRD4 (Homo sapiens, UniProt O60885); assay: TR-FRET bromodomain binding assay, BRD4 BD1; settings: Ki calculated from IC50, probe Kd and probe concentration, read-out: TR-FRET Binding Ki: BRD4 (BDI_K57-E168)
T1 construct: His-tagged first (BD1: amino acids K57-E168)
Method in brief: (§1)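 Compounds were serially diluted in DMSO, diluted into pH 6.0 phosphate buffer with NaCl, EDTA, Triton X-100 and DTT, then combined with His-tagged bromodomain and an Alexa647-labeled BET-inhibitor probe. TR-FRET was read, percent inhibition fitted to give IC50, and Ki derived using probe Kd.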

[3] = biological target: T2, second (BD2: amino acids E352-E168) bromodomain of BRD4 (Homo sapiens, UniProt O60885); assay: TR-FRET bromodomain binding assay, BRD4 BD2; settings: Ki calculated from IC50, probe Kd and probe concentration, read-out: TR-FRET Binding Ki: BRD4 (BDII_E352-M457)
T2 construct: protocol
Method in brief: as §1

[4] = system: LPS induced IL-6 production; assay: LPS (lipopolysaccharide) induced IL-6 production mouse assay; settings: 1 h before LPS 2.5 mg/kg i.p., serum IL-6 2 h after LPS, p<0.05
Method: Severe combined immunodeficient female mice (5 per group) received an intraperitoneal challenge of lipopolysaccharide (2.5 mg/kg, L2630 E. coli 0111:B4) one hour after oral administration of compounds. Mice were euthanized 2 hours after lipopolysaccharide injection, blood was removed by cardiac puncture, and then the serum harvested from the blood samples was frozen at −80° C. On the day of the assay the serum samples were brought to room temperature and then diluted 1:20 in phosphate-buffered saline containing 2% bovine serum albumin. Interleukin-6 measurements were performed using a cytokine assay from Meso Scale Discovery (Gaithersburg, Md.) for mouse serum analysis according to the manufacturer's protocol and read on a SECTOR Imager 6000 (Meso Scale Discovery, Gaithersburg, Md.) instrument. Statistical analysis was performed using Prism software (version 5.0) incorporating Dunnett's one way ANOVA. The IL-6 mean and standard deviation of the group of vehicle treated animals were compared with the IL-6 mean and standard deviation of the group treated with drug. A p value <0.05 means that there is less than a 5% probability that the mean values in the two groups are equal.

[5] = TR-FRET assay protocol (A-G, compound concentration range)
[6] = TR-FRET assay protocol (D, E or G) per compound

Row | SMILES | EC50 ([1]; 72 h incubation) [nM] | Ki [2, 5] [nM] | Ki [3, 5] [nM] | Inhibition of LPS induced IL-6 production, % inhibition ([4]; 50 mg/kg oral) | Inhibition of LPS induced IL-6 production, % inhibition ([4]; 30 mg/kg oral) | Inhibition of LPS induced IL-6 production, % inhibition ([4]; 3 mg/kg oral) | EC50 ([1]; 72 hours with compound) [nM] | Ki [2, 6] [nM] | Ki [3, 6] [nM]
1 | COc1cc(=O)n(C)nc1-c1cc(NS(C)(=O)=O)ccc1Oc1ccccc1 [Example 22, N-[3-(4-methoxy-1-methyl-6-oxo-1,6-dihydropyridazin-3-yl)-4-phenoxyphenyl]methanesulfonamide] | 730 | 258 | 51.9 | 53.9 @ 50 mg/kg % |  |  |  |  | 
2 | Cn1cc(-c2cc(NS(C)(=O)=O)ccc2Oc2ccc(Cl)cc2)ccc1=O [Example 233, N-[4-(4-chlorophenoxy)-3-(1-methyl-6-oxo-1,6-dihydropyridin-3-yl)phenyl]methanesulfonamide] | 423 | 19.2 | 110 |  | 75.9 @ 30 mg/kg % |  |  |  | 
3 | Cn1cc(-c2cc(NS(C)(=O)=O)ccc2Oc2ccccc2Cl)ccc1=O [Example 235, N-[4-(2-chlorophenoxy)-3-(1-methyl-6-oxo-1,6-dihydropyridin-3-yl)phenyl]methanesulfonamide] | 238 | 47.6 | 17 |  | 58.7 @ 30 mg/kg % |  |  |  | 
4 | CCS(=O)(=O)Nc1ccc(Oc2ccc(F)cc2F)c(-c2ccc(=O)n(C)c2)c1 [Example 241, N-[4-(2,4-difluorophenoxy)-3-(1-methyl-6-oxo-1,6-dihydropyridin-3-yl)phenyl]ethanesulfonamide] | 181 | 34.6 | 27.1 |  |  | 73.9 @ 3 mg/kg % |  |  | 
5 | Cc1cc(Oc2ccccc2)c(-c2ccc(=O)n(C)c2)cc1NS(C)(=O)=O [Example 257, N-[2-methyl-5-(1-methyl-6-oxo-1,6-dihydropyridin-3-yl)-4-phenoxyphenyl]methanesulfonamide] | 173 | 18.1 | 31.6 |  | 49.7 @ 30 mg/kg % |  |  |  | 
6 | CCCOc1cc(=O)n(C)cc1-c1cc(NS(=O)(=O)CC)ccc1Oc1ccc(F)cc1F [Example 292, N-[4-(2,4-difluorophenoxy)-3-(1-methyl-6-oxo-4-propoxy-1,6-dihydropyridin-3-yl)phenyl]ethanesulfonamide] | 45 | 4.97 | 1.73 |  |  | 58.0 @ 3 mg/kg % |  |  | 
7 | [2H]C([2H])(C)Oc1cc(=O)n(C)cc1-c1cc(NS(=O)(=O)CC)ccc1Oc1ccc(F)cc1F [Example 333, N-[4-(2,4-difluorophenoxy)-3-{4-[(1,1-^2H2)ethyloxy]-1-methyl-6-oxo-1,6-dihydropyridin-3-yl}phenyl]ethanesulfonamide] |  |  |  |  |  | 63.6 @ 3 mg/kg % |  |  | 
8 | CCS(=O)(=O)Nc1ccc(Oc2ccc(F)cc2F)c(-c2cn(C)c(=O)cc2OCC2(C)CC2(F)F)c1 (stereo not drawn) [Example 335, N-[3-{4-[(2,2-difluoro-1-methylcyclopropyl)methoxy]-1-methyl-6-oxo-1,6-dihydropyridin-3-yl}-4-(2,4-difluorophenoxy)phenyl]ethanesulfonamide] | 239 | 95.3 | 15.1 |  |  | 50.9 @ 3 mg/kg % |  |  | 
9 | CCS(=O)(=O)Nc1ccc(Oc2ccc(F)cc2F)c(-c2cn(C)c(=O)cc2-n2cccn2)c1 [Example 346, N-{4-(2,4-difluorophenoxy)-3-[1-methyl-6-oxo-4-(1H-pyrazol-1-yl)-1,6-dihydropyridin-3-yl]phenyl}ethanesulfonamide] | 264 | 41.5 | 13 |  |  | 48.6 @ 3 mg/kg % |  |  | 
10 | CCOc1cc(=O)n(C)cc1-c1cc(NS(=O)(=O)CC)ccc1Oc1ccc(C#N)cc1 [Example 358, N-[4-(4-cyanophenoxy)-3-(4-ethoxy-1-methyl-6-oxo-1,6-dihydropyridin-3-yl)phenyl]ethanesulfonamide] | 52.6 | 7.8 | 7.61 |  |  | 60.5 @ 3 mg/kg % |  |  | 
11 | CCNc1cc(=O)n(C)cc1-c1cc(NS(=O)(=O)CC)ccc1Oc1ccc(F)cc1F [Example 363, N-{4-(2,4-difluorophenoxy)-3-[4-(ethylamino)-1-methyl-6-oxo-1,6-dihydropyridin-3-yl]phenyl}ethanesulfonamide] | 29.6 | 4.94 | 1.53 |  |  | 42.7 @ 3 mg/kg % |  |  | 
12 | CCS(=O)(=O)Nc1ccc(Oc2ccc(F)cc2F)c(-c2cn(C)c(=O)cc2OC2CCC2)c1 [Example 367, N-{3-[4-(cyclobutyloxy)-1-methyl-6-oxo-1,6-dihydropyridin-3-yl]-4-(2,4-difluorophenoxy)phenyl}ethanesulfonamide] | 18.9 | 2.11 | 0.528 |  |  | 80.0 @ 3 mg/kg % |  |  | 
13 | CCOc1cc(=O)n(C)cc1-c1cc(NS(=O)(=O)CC)ccc1Oc1cc(F)c(F)c(F)c1 [Example 402, N-[3-(4-ethoxy-1-methyl-6-oxo-1,6-dihydropyridin-3-yl)-4-(3,4,5-trifluorophenoxy)phenyl]ethanesulfonamide] |  |  |  |  |  |  | 55.2 | 32.3 | 16.6
14 | CCOc1cc(=O)n(C)cc1-c1cc(NS(=O)(=O)CC)ccc1Oc1ccc(Cl)cc1F [Example 403, N-[4-(4-chloro-2-fluorophenoxy)-3-(4-ethoxy-1-methyl-6-oxo-1,6-dihydropyridin-3-yl)phenyl]ethanesulfonamide] |  |  |  |  |  |  | 23.9 | 14.7 | 1.38
15 | CCOc1cc(=O)n(C)cc1-c1cc(NS(=O)(=O)CC)ccc1Oc1c(F)cc(Cl)cc1F [Example 404, N-[4-(4-chloro-2,6-difluorophenoxy)-3-(4-ethoxy-1-methyl-6-oxo-1,6-dihydropyridin-3-yl)phenyl]ethanesulfonamide] |  |  |  |  |  |  | 24.7 | 11.8 | 1.43
16 | CCOc1cc(=O)n(C)cc1-c1cc(NS(=O)(=O)CC)ccc1Oc1cccnc1 [Example 405, N-[3-(4-ethoxy-1-methyl-6-oxo-1,6-dihydropyridin-3-yl)-4-(pyridin-3-yloxy)phenyl]ethanesulfonamide] |  |  |  |  |  |  | 50.2 | 36.3 | 4.99
17 | CCS(=O)(=O)Nc1ccc(Oc2ccc(F)cc2F)c(-c2cn(C)c(=O)cc2-c2ccc(C)s2)c1 [Example 407, N-{4-(2,4-difluorophenoxy)-3-[1-methyl-4-(5-methylthiophen-2-yl)-6-oxo-1,6-dihydropyridin-3-yl]phenyl}ethanesulfonamide] |  |  |  |  |  |  | 72.3 | 6.92 | 2.06
18 | CCOc1cc(=O)n(C)cc1-c1cc(NS(=O)(=O)CC)ccc1Oc1ccc(C#N)cc1F [Example 408, N-[4-(4-cyano-2-fluorophenoxy)-3-(4-ethoxy-1-methyl-6-oxo-1,6-dihydropyridin-3-yl)phenyl]ethanesulfonamide] |  |  |  |  |  |  | 115 | 45.1 | 19.1
19 | CCOc1cc(=O)n(C)cc1-c1cc(NC(=O)c2cncs2)ccc1Oc1ccc(F)cc1F [Example 411, N-[4-(2,4-difluorophenoxy)-3-(4-ethoxy-1-methyl-6-oxo-1,6-dihydropyridin-3-yl)phenyl]-1,3-thiazole-5-carboxamide] |  |  |  |  |  |  | 254 | 61.3 | 47
20 | CCOc1cc(=O)n(C)cc1-c1cc(NC(=O)c2cc(Cl)ccc2Cl)ccc1Oc1ccc(F)cc1F [Example 412, 2,5-dichloro-N-[4-(2,4-difluorophenoxy)-3-(4-ethoxy-1-methyl-6-oxo-1,6-dihydropyridin-3-yl)phenyl]benzamide] |  |  |  |  |  |  | 251 | 28.9 | 11.9
21 | CCOc1cc(=O)n(C)cc1-c1cc(NC(=O)c2ccccn2)ccc1Oc1ccc(F)cc1F [Example 415, N-[4-(2,4-difluorophenoxy)-3-(4-ethoxy-1-methyl-6-oxo-1,6-dihydropyridin-3-yl)phenyl]pyridine-2-carboxamide] |  |  |  |  |  |  | 279 | 40.5 | 33.3
22 | CCOc1cc(=O)n(C)cc1-c1cc(S(=O)(=O)N2CCc3ccccc32)ccc1Oc1ccc(F)cc1F [Example 419, 5-[2-(2,4-difluorophenoxy)-5-(2,3-dihydro-1H-indol-1-ylsulfonyl)phenyl]-4-ethoxy-1-methylpyridin-2(1H)-one] |  |  |  |  |  |  | 1000 | 25.3 | 2.84
23 | CCOc1cc(=O)n(C)cc1-c1cc(N(C)S(=O)(=O)Cc2ccccc2)ccc1Oc1ccc(F)cc1F [Example 420, N-[4-(2,4-difluorophenoxy)-3-(4-ethoxy-1-methyl-6-oxo-1,6-dihydropyridin-3-yl)phenyl]-N-methyl-1-phenylmethanesulfonamide] |  |  |  |  |  |  | 832 | > 238 | 22.1
